{"source": "patent US9205064B2", "about": "“Methods for the diagnosis of oncological disorders using epimetabolic shifters, multidimensional intracellular molecules, or environmental influencers” (Berg LLC, priority 2009, dated 2015)", "key": {"[1]": {"tested_on": "Pancreatic Cancer Cells (PaCa2)", "assay": "Real-time PCR Angiogenesis Array", "format": "cell-based", "settings": "100 uM Q10, various times", "experimental": "Experiments were carried out essentially as described above."}, "[2]": {"tested_on": "oncogenic and normal cell lines", "assay": "Minimal CoQ10 concentration and treatment time for induction of early apoptosis (Bcl-2, caspase activation, annexin V)", "format": "cell-based", "experimental": "CoQ10 treatment of cells was carried out as described in detail below in the Materials and Methods. Induction of apoptosis was assessed in the treated cells by monitoring indicators of early apoptosis (e.g., Bcl-2 expression, caspase activation and by using annexin V assays) as described below. From these studies, the minimal CoQ10 dosage, e.g., concentration of CoQ10 and time of treatment, required to induce apoptosis in the panel of cell lines was determined.\nCells were cultured in T-75 flasks with relevant medium supplemented with 10% Fetal Bovine Serum (FBS), 1% PSA (penicillin, streptomycin, amphotericin B) (Invitrogen and Cellgro) in a 37° C. incubator with 5% CO2 levels until 70-80% confluence was reached. To harvest cells for treatment, flasks were primed with 1 mL Trypsin, aspirated, trypsinized with an additional 3 mL, and incubated at 37° C. for 3-5 minutes. Cells were then neutralized with an equal volμme of media and the subsequent solution was centrifuged at 10,000 rpm for 8 minutes. The supernatant was aspirated and the cells were resuspended with 8.5 ml of media. A mixture of 500 ul of the resuspension and 9.5 ml of […] was read twice by a coulter counter and the appropriate number of cells to be seeded into each dish was determined Control and concentration ranging from 0-200 μM groups were examined in triplicate. From a 500 μM CoQ-10 stock solution, serial dilutions were performed to achieve desired experimental concentration in appropriate dishes. Dishes were incubated in a 37° C. incubator with 5% CO2 levels for 0-72 hours depending on cell type and experimental protocol.\nFollowing cell treatment incubation period was complete, protein isolation was performed. Dishes of all treatment groups were washed twice with 2 ml, and once with 1 ml of ice cold 1× Phosphate Buffered Saline (PBS). The PBS was aspirated from the dishes after the initial 2 washes only. Cells were gently scraped and collected into microcentrifuge tubes using the final volume from the third wash and centrifuged at 10,000 rpm for 10 minutes. After centrifugation, the supernatant was aspirated and the pellet was lysed with 50 uL of lysis buffer (1 uL of protease and phosphotase inhibitor for every 100 uL of lysis buffer). Samples were then frozen overnight at −20° C.\nAfter the cell treatment incubation period was complete, protein isolation was performed. Flasks of all treatment groups were washed twice with 5 mL, and once with 3 mL of ice cold 1×PBS. The PBS was aspirated from the flasks after the first 2 washes only. Cells were gently scraped and collected into 15 mL centrifuge tubes using the final volume from the third wash and centrifuged for at 10,000 rpm for 10 minutes. After centrifugation, the supernatant was aspirated and the pellet was lysed with an appropriate amount of lysis buffer (1 uL of protease and phosphotase inhibitor for every 100 uL of lysis buffer). Lysis buffer volume was dependent on pellet size. Samples were transferred in microcentrifuge tubes and frozen overnight at −20° C.\nSamples were thawed at […] and sonicated to ensure homogenization the day following protein isolation. Protein quantification was performed using the micro BCA protein assay kit (Pierce). To prepare samples for Immuno-blotting, a 1:19 solution of betamercaptoethanol (Sigma) to sample buffer (Bio-Rad) was prepared. Samples were diluted 1:1 with the betamercaptoethanol-sample buffer solution, boiled at 95° C. for 5 minutes, and frozen overnight at −20° C.\nThe volume of sample to load per well was determined using the raw mean concentration of protein obtained from the BCA protein assay. Approximately 30-60 μg of protein were loaded for each treatment time point. Proteins were run in triplicate on 12% Tris-HCl ready gels (Bio-Rad) or hand cast gels in 1× running buffer at 85 and 100 volts. Proteins were then transferred onto nitrocellulose paper for an hour at 100 volts, and blocked for another hour in a 5% milk solution. […]"}, "[3]": {"tested_on": "HDFa cells", "assay": "SeaHorse XF analyzer OCR and ECAR", "format": "cell-based, human", "settings": "normoxic and hypoxic, 5.5 mM and 22 mM glucose", "description": "Environmental influencers (e.g., MIMs or Epi-shifters) may also be identified by changes in cellular energetics. One example of the measurement of cellular energetics are the real-time measures of the consumption of molecular oxygen and/or the change in pH of the media of a cell culture. For example, the ability of a potential epi-shifter to modulate the metabolic state of a cell may be analyzed using, for example, the XF24 Analyzer (Seahorse, Inc.). This technology allows for real time detection of oxygen and pH changes in a monolayer of cells in order to evaluate the bioenergetics of a cell microenvironment. The XF24 Analyzer measures and compares the rates of oxygen consumption (OCR), which is a measure of aerobic metabolism, and extracellular acidification (ECAR), which is a measure of glycolysis, both key indicators of cellular energetics.\n(SeaHorse Biosciences Inc, North Billerica, Mass.).\nIn this experiment, the OCR and extracellular acidification rate (ECAR) in normal cells lines were obtained in the presence and absence of CoQ10 to determine baseline values. It was observed that in its native nutrient environment, the basal OCR rates in normal cells lines are different, and are usually a function of the physiological roles of the cells in the body.\nFIGS. 29 and 30 describe the OCR in HDFa and HASMC cells grown in physiologically normal glucose (about 4.6 mM) and high glucose (hyperglycemic) conditions.\nTable 53, below, describes the ECAR values (mpH/min) in HDFa cells in the presence or absence of CoQ10 under normoxic and hypoxic conditions at 5.5 mM and 22 mM glucose."}}, "data": [{"smiles": "COC1=C(OC)C(=O)C(C/C=C(\\C)CC/C=C(\\C)CC/C=C(\\C)CC/C=C(\\C)CC/C=C(\\C)CC/C=C(\\C)CC/C=C(\\C)CC/C=C(\\C)CC/C=C(\\C)CCC=C(C)C)=C(C)C1=O", "note": "[Q10, Coenzyme Q10]", "values": [{"measurement": "mRNA of AKT1, ANGPTL4, ANGPEP, CCL2, CDH4, CXCL1, EDG1, EFNA3, EFNB2, EGF, FGF1, ID3, IL1B, 1L8, KDR, NRP1, PECAM1, PROK2, SERPINF1, SPHK1, STAB1, TGFB1, VEGFA and VEGFB", "setting": "[1]", "value": "modulated"}, {"measurement": "Indication of Early apoptosis (Bcl-2, annexin V, or caspase activation)", "setting": "[2]; BONE: Ewing's sarcoma (NCI)", "value": "Extremely strong"}, {"measurement": "Minimal CoQ10 Concentration for early apoptosis", "setting": "[2]; BONE: Ewing's sarcoma (NCI)", "value": 5, "unit": "µM"}, {"measurement": "Minimal treatment Time for early apoptosis", "setting": "[2]; BONE: Ewing's sarcoma (NCI)", "value": 1, "unit": "h"}, {"measurement": "Indication of Early apoptosis (Bcl-2, annexin V, or caspase activation)", "setting": "[2]; BONE: Osteosarcoma (143b)", "value": "Very Strong"}, {"measurement": "Minimal CoQ10 Concentration for early apoptosis", "setting": "[2]; BONE: Osteosarcoma (143b)", "value": 50, "unit": "µM"}, {"measurement": "Minimal treatment Time for early apoptosis", "setting": "[2]; BONE: Osteosarcoma (143b)", "value": 48, "unit": "h"}, {"measurement": "Indication of Early apoptosis (Bcl-2, annexin V, or caspase activation)", "setting": "[2]; BREAST: BT-20", "value": "Strong"}, {"measurement": "Minimal CoQ10 Concentration for early apoptosis", "setting": "[2]; BREAST: BT-20", "value": 100, "unit": "µM"}, {"measurement": "Minimal treatment Time for early apoptosis", "setting": "[2]; BREAST: BT-20", "value": 48, "unit": "h"}, {"measurement": "Indication of Early apoptosis (Bcl-2, annexin V, or caspase activation)", "setting": "[2]; BREAST: MCF-7", "value": "Strong"}, {"measurement": "Minimal CoQ10 Concentration for early apoptosis", "setting": "[2]; BREAST: MCF-7", "value": 50, "unit": "µM"}, {"measurement": "Minimal treatment Time for early apoptosis", "setting": "[2]; BREAST: MCF-7", "value": 48, "unit": "h"}, {"measurement": "Indication of Early apoptosis (Bcl-2, annexin V, or caspase activation)", "setting": "[2]; BREAST: MDA MB 468", "value": "Strong"}, {"measurement": "Minimal CoQ10 Concentration for early apoptosis", "setting": "[2]; BREAST: MDA MB 468", "value": 100, "unit": "µM"}, {"measurement": "Minimal treatment Time for early apoptosis", "setting": "[2]; BREAST: MDA MB 468", "value": 48, "unit": "h"}, {"measurement": "Indication of Early apoptosis (Bcl-2, annexin V, or caspase activation)", "setting": "[2]; BREAST: SkBr-3", "value": "Very Strong"}, {"measurement": "Minimal CoQ10 Concentration for early apoptosis", "setting": "[2]; BREAST: SkBr-3", "value": 50, "unit": "µM"}, {"measurement": "Minimal treatment Time for early apoptosis", "setting": "[2]; BREAST: SkBr-3", "value": 24, "unit": "h"}, {"measurement": "Indication of Early apoptosis (Bcl-2, annexin V, or caspase activation)", "setting": "[2]; BREAST: ZR-75", "value": "Slight"}, {"measurement": "Minimal CoQ10 Concentration for early apoptosis", "setting": "[2]; BREAST: ZR-75", "value": 200, "unit": "µM"}, {"measurement": "Minimal treatment Time for early apoptosis", "setting": "[2]; BREAST: ZR-75", "value": 72, "unit": "h"}, {"measurement": "Indication of Early apoptosis (Bcl-2, annexin V, or caspase activation)", "setting": "[2]; Fibroblasts (nFib)", "value": "None"}, {"measurement": "Indication of Early apoptosis (Bcl-2, annexin V, or caspase activation)", "setting": "[2]; Heart: Aortic smooth muscle (HASMC)", "value": "None"}, {"measurement": "Indication of Early apoptosis (Bcl-2, annexin V, or caspase activation)", "setting": "[2]; Keratinocytes (Heka, Hekn)", "value": "None"}, {"measurement": "Indication of Early apoptosis (Bcl-2, annexin V, or caspase activation)", "setting": "[2]; LIVER: Hep3B", "value": "Very Strong"}, {"measurement": "Minimal CoQ10 Concentration for early apoptosis", "setting": "[2]; LIVER: Hep3B", "value": 50, "unit": "µM"}, {"measurement": "Minimal treatment Time for early apoptosis", "setting": "[2]; LIVER: Hep3B", "value": 24, "unit": "h"}, {"measurement": "Indication of Early apoptosis (Bcl-2, annexin V, or caspase activation)", "setting": "[2]; LIVER: HepG2", "value": "Very Strong"}, {"measurement": "Minimal CoQ10 Concentration for early apoptosis", "setting": "[2]; LIVER: HepG2", "value": 50, "unit": "µM"}, {"measurement": "Minimal treatment Time for early apoptosis", "setting": "[2]; LIVER: HepG2", "value": 24, "unit": "h"}, {"measurement": "Indication of Early apoptosis (Bcl-2, annexin V, or caspase activation)", "setting": "[2]; Mammary fiboblasts: 184A1 and 184B5", "value": "None"}, {"measurement": "Indication of Early apoptosis (Bcl-2, annexin V, or caspase activation)", "setting": "[2]; Melanocytes (Hema, LP)", "value": "None"}, {"measurement": "Indication of Early apoptosis (Bcl-2, annexin V, or caspase activation)", "setting": "[2]; Melanoma (Skmel 2)", "value": "Very Strong"}, {"measurement": "Minimal CoQ10 Concentration for early apoptosis", "setting": "[2]; Melanoma (Skmel 2)", "value": 25, "unit": "µM"}, {"measurement": "Minimal treatment Time for early apoptosis", "setting": "[2]; Melanoma (Skmel 2)", "value": 24, "unit": "h"}, {"measurement": "Indication of Early apoptosis (Bcl-2, annexin V, or caspase activation)", "setting": "[2]; Melanoma (Skmel 28)", "value": "Strong"}, {"measurement": "Minimal CoQ10 Concentration for early apoptosis", "setting": "[2]; Melanoma (Skmel 28)", "value": 20, "unit": "µM"}, {"measurement": "Minimal treatment Time for early apoptosis", "setting": "[2]; Melanoma (Skmel 28)", "value": 24, "unit": "h"}, {"measurement": "Indication of Early apoptosis (Bcl-2, annexin V, or caspase activation)", "setting": "[2]; PANCREAS: PaCa2", "value": "Very Strong"}, {"measurement": "Minimal CoQ10 Concentration for early apoptosis", "setting": "[2]; PANCREAS: PaCa2", "value": 25, "unit": "µM"}, {"measurement": "Minimal treatment Time for early apoptosis", "setting": "[2]; PANCREAS: PaCa2", "value": 24, "unit": "h"}, {"measurement": "Indication of Early apoptosis (Bcl-2, annexin V, or caspase activation)", "setting": "[2]; PROSTATE: PC3", "value": "Very Strong"}, {"measurement": "Minimal CoQ10 Concentration for early apoptosis", "setting": "[2]; PROSTATE: PC3", "value": 25, "unit": "µM"}, {"measurement": "Minimal treatment Time for early apoptosis", "setting": "[2]; PROSTATE: PC3", "value": 24, "unit": "h"}, {"measurement": "Indication of Early apoptosis (Bcl-2, annexin V, or caspase activation)", "setting": "[2]; SCC, Squamous cell carcinoma", "value": "Very Strong"}, {"measurement": "Minimal CoQ10 Concentration for early apoptosis", "setting": "[2]; SCC, Squamous cell carcinoma", "value": 25, "unit": "µM"}, {"measurement": "Minimal treatment Time for early apoptosis", "setting": "[2]; SCC, Squamous cell carcinoma", "value": 24, "unit": "h"}, {"measurement": "effect on normal cells, including keratinocytes and dermal fibroblasts", "setting": "[2]; normal tissue environment", "value": "increased proliferation and migration"}, {"measurement": "efficacy of treatment (induction of apoptosis) across cell types", "setting": "[2]; panel of oncogenic and normal cell lines", "value": "greater in cell types that exhibited increased oncogenicity and/or greater metastatic potential"}, {"measurement": "influence on ECAR values", "setting": "[3]", "value": "minimal influence"}]}]}
